Test results: patent US8710233B2 (Gruenenthal GmbH, priority 2005, dated 2014)
One block for each compound: values may come before it.

Key:
VR1/TRPV1 receptor = VR1/TRPV1 receptor (Homo sapiens, UniProt Q8NER1); test: IC50 (human) after pH stimulus; assay type: cell-based; conditions: for inhibition at 1 µM / inhibition in percent, IC50 (human) after pH stimulus: ne = no effect, @ 1 μM; for IC50: table 4
vanilloid receptor (VR1) = molecular target: T1, vanilloid receptor (VR1) (Homo sapiens, UniProt Q8NER1); test: FLIPR Ca2+ influx assay on CHO K1 cells transfected with the VR1 gene (pharmacological method II); assay type: cell-based; conditions: table 4; capsaicin; read-out: Ki (human) Cap.
T1 construct: expressed in transfected cells; host or cells: CHO K1 cells (ECACC), stably transfected
Source text: In this FLIPR assay, the influx of Ca^2+ is quantified with the assistance of a Ca^2+-sensitive dye (type Fluo-4, Molecular Probes Europe BV, Leiden, Netherlands) in a Fluorescent Imaging Plate Reader (FLIPR, Molecular Devices, Sunnyvale, USA) as described below.
II. Functional Investigations on the Vanilloid Receptor (VR1)
The agonistic or antagonistic action of the substances to be investigated on the vanilloid receptor (VR1) may also be determined with the following assay. According to this assay, the influx of Ca^2+ through the channel is quantified with the assistance of a Ca^2+-sensitive dye (type Fluo-4, Molecular Probes Europe BV, Leiden, Netherlands) in a Fluorescent Imaging Plate Reader (FLIPR, Molecular Devices, Sunnyvale, USA).
Chinese hamster ovary cells (CHO K1 cells, European Collection of Cell Cultures (ECACC), Great Britain) are stably transfected with the VR1 gene. For functional investigations, these cells are plated out onto poly-D-lysine-coated, black 96 well plates with a clear bottom (BD Biosciences, Heidelberg, Germany) at a density of 25,000 cells/well. The cells are incubated overnight at 37° C. and 5% CO2 in a culture medium (Ham's Nutrient Mixture F12, 10 vol. % FCS (foetal calf serum), 18 μg/mL L-proline). On the following day, the cells are incubated with Fluo-4 (Fluo-4 2 μM, Pluronic F127 0.01 vol. %, Molecular Probes in HBSS (Hank's buffered saline solution), Gibco Invitrogen GmbH, Karlsruhe, Germany) for 30 minutes at 37° C. The plates are then washed 3 times with HBSS buffer and, after a further 15 minutes' incubation at room temperature, used for […] measurement in the FLIPR. […] Quantification proceeds by measuring the highest fluorescence intensity (FC, fluorescence counts) over time.
The FLIPR protocol comprises 2 additions of substance. The substances to be tested (10 μM) are firstly pipetted onto the cells and Ca^2+ influx is compared with the control (capsaicin 10 μM) (% activation relative to the Ca^2+ signal after addition of 10 μM of capsaicin). After 5 minutes' incubation, 100 nM of capsaicin are added and the influx of Ca^2+ is again determined.
The percentage inhibition in comparison with the maximum achievable inhibition with 10 μM capsaicin is calculated.

[1] = read-out: inhibition in percent, IC50 (human) after pH stimulus

Chain of VR1/TRPV1 receptor (Q8NER1 whole entry): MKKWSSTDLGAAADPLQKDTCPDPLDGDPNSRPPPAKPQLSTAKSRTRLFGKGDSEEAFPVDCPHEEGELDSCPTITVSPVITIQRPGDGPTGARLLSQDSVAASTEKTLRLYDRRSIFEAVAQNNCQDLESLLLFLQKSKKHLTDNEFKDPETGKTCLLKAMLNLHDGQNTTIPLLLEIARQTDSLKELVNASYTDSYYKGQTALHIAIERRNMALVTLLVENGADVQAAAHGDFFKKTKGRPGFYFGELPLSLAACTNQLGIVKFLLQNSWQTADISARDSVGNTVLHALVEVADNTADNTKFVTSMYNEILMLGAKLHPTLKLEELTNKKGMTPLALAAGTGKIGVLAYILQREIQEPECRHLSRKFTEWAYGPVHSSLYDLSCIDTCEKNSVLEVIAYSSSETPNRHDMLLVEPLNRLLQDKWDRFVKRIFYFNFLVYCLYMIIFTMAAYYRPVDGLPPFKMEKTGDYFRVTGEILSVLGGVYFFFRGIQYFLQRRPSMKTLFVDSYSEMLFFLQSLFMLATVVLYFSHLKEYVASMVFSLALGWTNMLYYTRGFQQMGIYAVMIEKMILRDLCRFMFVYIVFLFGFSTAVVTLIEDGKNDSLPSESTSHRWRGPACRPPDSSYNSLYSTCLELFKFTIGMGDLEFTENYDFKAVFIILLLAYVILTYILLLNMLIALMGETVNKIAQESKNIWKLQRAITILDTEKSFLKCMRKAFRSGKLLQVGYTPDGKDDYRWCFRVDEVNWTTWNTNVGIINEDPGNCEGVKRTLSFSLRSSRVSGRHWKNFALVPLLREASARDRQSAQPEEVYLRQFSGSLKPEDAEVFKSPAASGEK
T1 sequence (Q8NER1 whole entry): as above

inhibition at 1 µM (VR1/TRPV1 receptor; [1]): 26%
SMILES: CC(C(=O)NCc1ccc(C(F)(F)F)nc1Nc1ccc(F)cc1)c1ccc(NS(C)(=O)=O)c(F)c1 (centres unmarked) [Compound 112]

inhibition at 1 µM (VR1/TRPV1 receptor; [1]): 15%
SMILES: CC(C(=O)NCc1ccc(C(F)(F)F)nc1N1CCN(C)CC1)c1ccc(NS(C)(=O)=O)c(F)c1 (centres unmarked) [Compound 134]

inhibition at 0.1 µM (VR1/TRPV1 receptor; [1]): 31%
SMILES: CC(C)OC1CCN(c2nc(C(F)(F)F)ccc2CNC(=O)C(C)c2ccc(NS(C)(=O)=O)c(F)c2)CC1 (centres unmarked) [Compound 162]

inhibition at 0.01 µM (VR1/TRPV1 receptor; [1]): 6%
inhibition at 0.1 µM (VR1/TRPV1 receptor; [1]): 48%
SMILES: Cc1cc(C(C)C(=O)NCc2ccc(C(F)(F)F)nc2N2CCC(C)CC2)ccc1NS(C)(=O)=O (centres unmarked) [Compound 196]

inhibition at 0.01 µM (VR1/TRPV1 receptor; [1]): 3%
SMILES: CC(C(=O)NCc1ccc(C(F)(F)F)cc1OC1CCCCC1)c1ccc(NS(C)(=O)=O)c(F)c1 (centres unmarked) [Compound 238]

inhibition at 0.1 µM (VR1/TRPV1 receptor; [1]): 0%
SMILES: CC(C(=O)NCc1ccc(C(F)(F)F)nc1N1CCC(CN(C)C)(c2ccccc2)CC1)c1ccc(NS(C)(=O)=O)c(F)c1 (centres unmarked) [Compound 259]

inhibition at 0.1 µM (VR1/TRPV1 receptor; [1]): 8.5%
SMILES: CC(C(=O)NCc1ccc(C(F)(F)F)nc1N1CCN(C2CCCCC2)CC1)c1ccc(NS(C)(=O)=O)c(F)c1 (centres unmarked) [Compound 260]

inhibition at 0.01 µM (VR1/TRPV1 receptor; [1]): 4%
inhibition at 0.1 µM (VR1/TRPV1 receptor; [1]): 52%
SMILES: CC(C(=O)NCc1ccc(C(F)(F)F)nc1CCC(C)(C)C)c1ccc(NS(C)(=O)=O)c(F)c1 (centres unmarked) [Compound 263]

inhibition at 0.01 µM (VR1/TRPV1 receptor; [1]): 12%
inhibition at 0.1 µM (VR1/TRPV1 receptor; [1]): 55%
SMILES: CC1CCCN(c2nc(C(F)(F)F)ccc2CNC(=O)C(C)c2ccc(NS(C)(=O)=O)c(F)c2)C1 (centres unmarked) [Compound 282]

inhibition at 0.01 µM (VR1/TRPV1 receptor; [1]): 11%
inhibition at 0.1 µM (VR1/TRPV1 receptor; [1]): 43%
SMILES: CC(C(=O)NCc1ccc(C(F)(F)F)nc1N1CCCCC1C)c1ccc(NS(C)(=O)=O)c(F)c1 (centres unmarked) [Compound 283]

inhibition at 1 µM (VR1/TRPV1 receptor; [1]): 27%
SMILES: CCCCC(CCCC)Oc1nc(C(F)(F)F)ccc1CNC(=O)C(C)c1ccc(NS(C)(=O)=O)c(F)c1 (centres unmarked) [Compound 352]

Ki (vanilloid receptor (VR1)): 1 nM
IC50 (VR1/TRPV1 receptor): 146 nM
SMILES: CCCCCc1nc(C(F)(F)F)ccc1CNC(=O)[C@@H](C)c1ccc(NS(C)(=O)=O)c(F)c1 [Example 144, (S)-2-(3-fluoro-4-methylsulfonamido-phenyl)-N-(2-pentyl-6-trifluoromethyl-pyridin-3-ylmethyl)-propionamide]

Ki (vanilloid receptor (VR1)): 78 nM
inhibition at 10 µM (VR1/TRPV1 receptor; @ 10 μM, read-out: inhibition in percent, IC50 (human) after pH stimulus): 49%
SMILES: CCCCCc1nc(C(F)(F)F)ccc1CNC(=O)[C@H](C)c1ccc(NS(C)(=O)=O)c(F)c1 [Example 145, (R)-2-(3-fluoro-4-methylsulfonamido-phenyl)-N-(2-pentyl-6-trifluoromethyl-pyridin-3-ylmethyl)-propionamide]

Ki (vanilloid receptor (VR1)): 3.4 nM
inhibition in percent, IC50 (human) after pH stimulus (VR1/TRPV1 receptor): ne @ 1 μM
SMILES: CC(C(=O)NCc1ccc(C(F)(F)F)nc1-c1ccc2c(c1)OCO2)c1ccc(NS(C)(=O)=O)c(F)c1 (centres unmarked) [Example 266, N-(2-benzo[1,3]dioxol-5-yl-6-trifluoromethyl-pyridin-3-ylmethyl)-2-(3-fluoro-4-methylsulfonamido-phenyl)-propionamide]

Ki (vanilloid receptor (VR1)): 1.6 nM
SMILES: CCC(C(=O)NCc1ccc(C(F)(F)F)nc1N1CCC(C)CC1)c1ccc(NS(C)(=O)=O)c(F)c1 (centres unmarked) [Example 347, 2-(3-fluoro-4-methylsulfonamido-phenyl)-N-(4-methyl-6′-trifluoromethyl-3,4,5,6-tetrahydro-2H-[1,2′]bipyridinyl-3′-ylmethyl)-butyramide]

Ki (vanilloid receptor (VR1)): 44 nM
SMILES: CCOC(=O)c1cc(CNC(=O)C(C)c2ccc(NS(C)(=O)=O)c(F)c2)c(N2CCC(C)CC2)cc1C(F)(F)F (centres unmarked) [Example 351, 5-{[2-(3-fluoro-4-methylsulfonamido-phenyl)-propionylamino]-methyl}-4-(4-methyl-piperidin-1-yl)-2-trifluoromethyl-benzoic acid ethyl ester]

IC50 (VR1/TRPV1 receptor): 30 nM
SMILES: CCCCCOc1nc(C(F)(F)F)ccc1CNC(=O)C(C)c1ccc(NS(C)(=O)=O)c(F)c1 (centres unmarked) [Example 375, 2-(3-fluoro-4-(methylsulfonamido)phenyl)-N-((2-(pentyloxy)-6-(trifluoromethyl)pyridin-3-yl)methyl)propanamide]

Ki (vanilloid receptor (VR1)): 3 nM
SMILES: CC1CC(C)CC(Oc2nc(C(F)(F)F)ccc2CNC(=O)C(C)c2ccc(NS(C)(=O)=O)c(F)c2)C1 (centres unmarked) [Example 377, N-((2-(3,5-dimethylcyclohexyloxy)-6-(trifluoromethyl)pyridin-3-yl)methyl)-2-(3-fluoro-4-(methylsulfonamido)phenyl)propanamide]

Second part, the compound before the results:

SMILES: CCCCCCOc1nc(C(C)(C)C)ccc1CNC(=O)C(C)c1ccc(NS(C)(=O)=O)c(F)c1 (centres unmarked) [Compound 236]
inhibition at 0.1 µM (VR1/TRPV1 receptor; [1]): 2%

SMILES: CC(C(=O)NCc1ccc(C(F)(F)F)cc1N1CCN(c2ccc(C(F)(F)F)cc2)CC1)c1ccc(NS(C)(=O)=O)c(F)c1 (centres unmarked) [Compound 248]
inhibition at 1 µM (VR1/TRPV1 receptor; [1]): 63%

SMILES: CCCCOc1nc(C(F)(F)F)ccc1CNC(=O)C(C)c1ccc(NS(C)(=O)=O)c(C)c1 (centres unmarked) [Compound 256]
inhibition at 0.01 µM (VR1/TRPV1 receptor; [1]): 15%
inhibition at 0.1 µM (VR1/TRPV1 receptor; [1]): 43%

SMILES: CCCCCCOc1nc(C(F)(F)F)ccc1CNC(=O)C(C)c1ccc(NS(C)(=O)=O)c(C)c1 (centres unmarked) [Compound 257]
inhibition at 0.01 µM (VR1/TRPV1 receptor; [1]): 11%
inhibition at 0.1 µM (VR1/TRPV1 receptor; [1]): 63%

SMILES: CC(C(=O)NCc1ccc(C(F)(F)F)cc1N1CCN(C2CCCCC2)CC1)c1ccc(NS(C)(=O)=O)c(F)c1 (centres unmarked) [Compound 319]
inhibition at 1 µM (VR1/TRPV1 receptor; [1]): 4%

SMILES: COc1ccc(-c2nc(C(F)(F)F)ccc2CNC(=O)C(C)c2ccc(NS(C)(=O)=O)c(F)c2)cc1OC (centres unmarked) [Compound 326]
inhibition at 1 µM (VR1/TRPV1 receptor; [1]): 8%
inhibition at 5 µM (VR1/TRPV1 receptor; [1]): 32%

SMILES: CCCN(CCC)c1nc(C(F)(F)F)ccc1CNC(=O)C(C)c1ccc(NS(C)(=O)=O)c(C)c1 (centres unmarked) [Compound 331]
inhibition at 0.1 µM (VR1/TRPV1 receptor; [1]): 18%
inhibition at 1 µM (VR1/TRPV1 receptor; [1]): 26%
inhibition at 5 µM (VR1/TRPV1 receptor; [1]): 22%

SMILES: CC(C)COc1nc(C(C)(C)C)ccc1CNC(=O)C(C)c1ccc(NS(C)(=O)=O)c(F)c1 (centres unmarked) [Compound 353]
inhibition at 0.05 µM (VR1/TRPV1 receptor; @ 0.05 μM, read-out: inhibition in percent, IC50 (human) after pH stimulus): 18%

SMILES: CC(C(=O)NCc1ccc(C(F)(F)F)cc1-c1cccnc1)c1ccc(NS(C)(=O)=O)c(F)c1 (centres unmarked) [Example 46, 2-(3-fluoro-4-(methylsulfonamido)phenyl)-N-(2-(pyridin-3-yl)-4-(trifluoromethyl)benzyl)propanamide]
Ki (vanilloid receptor (VR1)): 59.4 nM
inhibition at 5 µM (VR1/TRPV1 receptor; [1]): 40%

SMILES: CC(C)COc1nc(C(F)(F)F)ccc1CNC(=O)[C@@H](C)c1ccc(NS(C)(=O)=O)c(F)c1 [Example 96, (S)-2-(3-fluoro-4-methylsulfonamido-phenyl)-N-(2-isobutoxy-6-trifluoromethyl-pyridin-3-ylmethyl)-propionamide]
Ki (vanilloid receptor (VR1)): 0.5 nM
IC50 (VR1/TRPV1 receptor): 30 nM

SMILES: CC(C)COc1nc(C(F)(F)F)ccc1CNC(=O)[C@H](C)c1ccc(NS(C)(=O)=O)c(F)c1 [Example 97, (R)-2-(3-fluoro-4-methylsulfonamido-phenyl)-N-(2-isobutoxy-6-trifluoromethyl-pyridin-3-ylmethyl)-propionamide]
Ki (vanilloid receptor (VR1)): 44.5 nM
IC50 (VR1/TRPV1 receptor): 2150 nM

SMILES: CC(C)COc1cc(C(F)(F)F)ccc1CNC(=O)C(C)c1ccc(NS(C)(=O)=O)c(F)c1 (centres unmarked) [Example 98, 2-(3-fluoro-4-methylsulfonamido-phenyl)-N-(2-isobutoxy-4-trifluoromethyl-benzyl)-propionamide]
Ki (vanilloid receptor (VR1)): 1.5 nM
IC50 (VR1/TRPV1 receptor): 41 nM

SMILES: CC(C(=O)NCc1c(CO)cc(C(C)(C)C)nc1OC1CCCC1)c1ccc(NS(C)(=O)=O)c(F)c1 (centres unmarked) [Example 261, N-(6-tert-butyl-2-cyclopentyloxy-4-hydroxymethyl-pyridin-3-ylmethyl)-2-(3-fluoro-4-methylsulfonamido-phenyl)-propionamide]
inhibition in percent, IC50 (human) after pH stimulus (VR1/TRPV1 receptor): ne @ 1 μM

SMILES: CC(C(=O)NCc1ccc(C(F)(F)F)cc1-c1cccc(Cl)c1)c1ccc(NS(C)(=O)=O)c(F)c1 (centres unmarked) [Example 322, N-(3′-chloro-5-trifluoromethyl-biphenyl-2-ylmethyl)-2-(3-fluoro-4 methylsulfonamido-phenyl)-propionamide]
inhibition at 0.1 µM (VR1/TRPV1 receptor; [1]): 25%
inhibition at 1 µM (VR1/TRPV1 receptor; [1]): 54%

SMILES: CC(C(=O)NCc1ccc(C(F)(F)F)cc1-c1ccc(F)c(Cl)c1)c1ccc(NS(C)(=O)=O)c(F)c1 (centres unmarked) [Example 324, N-(3′-chloro-4′-fluoro-5-trifluoromethyl-biphenyl-2-ylmethyl)-2-(3-fluoro-4-methylsulfonamido-phenyl)-propionamide]
IC50 (VR1/TRPV1 receptor): 33 nM
